Test results as given in ChEMBL document CHEMBL1201862, “PubChem BioAssay data set” (2004).
Active and inactive are the calls of the source.

Experiments:
[1] = molecular target: T1, Apoptotic protease-activating factor 1 (Homo sapiens, UniProt O14727); assay type: functional
T1 sequence (O14727 whole entry): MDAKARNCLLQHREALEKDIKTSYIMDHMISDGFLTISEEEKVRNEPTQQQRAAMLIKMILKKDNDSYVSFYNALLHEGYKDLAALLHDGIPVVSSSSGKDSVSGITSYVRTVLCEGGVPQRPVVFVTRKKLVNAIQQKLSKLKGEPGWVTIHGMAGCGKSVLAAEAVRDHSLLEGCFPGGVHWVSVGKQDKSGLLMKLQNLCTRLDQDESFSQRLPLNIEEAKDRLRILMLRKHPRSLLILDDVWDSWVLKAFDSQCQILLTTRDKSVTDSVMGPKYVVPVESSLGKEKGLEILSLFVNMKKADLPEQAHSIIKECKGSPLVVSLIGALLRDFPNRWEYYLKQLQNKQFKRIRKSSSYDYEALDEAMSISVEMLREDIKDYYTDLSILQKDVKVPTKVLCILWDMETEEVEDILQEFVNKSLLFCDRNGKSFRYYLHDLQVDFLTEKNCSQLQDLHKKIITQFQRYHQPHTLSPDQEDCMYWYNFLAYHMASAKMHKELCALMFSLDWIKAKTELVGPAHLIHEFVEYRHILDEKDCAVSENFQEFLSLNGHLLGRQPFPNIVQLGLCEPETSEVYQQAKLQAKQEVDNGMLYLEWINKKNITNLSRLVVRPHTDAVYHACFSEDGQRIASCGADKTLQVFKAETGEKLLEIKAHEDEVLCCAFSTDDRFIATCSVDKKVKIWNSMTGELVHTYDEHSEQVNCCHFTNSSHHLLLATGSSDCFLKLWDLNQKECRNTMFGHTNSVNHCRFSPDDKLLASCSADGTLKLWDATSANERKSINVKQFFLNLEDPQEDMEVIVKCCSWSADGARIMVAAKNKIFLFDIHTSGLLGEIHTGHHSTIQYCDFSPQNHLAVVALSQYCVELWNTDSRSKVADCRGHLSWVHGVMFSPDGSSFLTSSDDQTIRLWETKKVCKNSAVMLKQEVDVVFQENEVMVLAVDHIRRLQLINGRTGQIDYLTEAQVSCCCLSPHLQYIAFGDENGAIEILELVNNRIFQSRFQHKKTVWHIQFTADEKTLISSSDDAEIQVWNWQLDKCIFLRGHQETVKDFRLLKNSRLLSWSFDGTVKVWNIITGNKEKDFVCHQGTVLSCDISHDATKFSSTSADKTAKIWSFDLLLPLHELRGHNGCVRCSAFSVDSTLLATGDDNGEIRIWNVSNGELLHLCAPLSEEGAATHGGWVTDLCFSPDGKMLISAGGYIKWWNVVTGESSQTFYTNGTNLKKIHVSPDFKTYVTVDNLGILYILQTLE

[2] = Luminescence Cell-Based Dose Response HTS to Identify Inhibitors of 5'UTR Stem-Loop Driven Prion Protein mRNA Translation in H4 Neuroglioblastoma Cells. [Related pubchem assays: 1827 (Project Summary), 1813 (Primary HTS)]; assay type: functional
[3] = HIV-1 AD8 envelope cell-cell fusion blockers – cherry-pick, dose response (AID 652062); assay type: functional, cell-based;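 note: luciferase signal from cell-cell fusion driven by HIV-1 clade B AD8 Env; potency is for inhibitors of fusion seen as a drop in luminescence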
[4] = alpha-synuclein stem-loop luciferase translation blockers – H4 neuroglioma cells, luminescence, confirmation (AID 1988); assay type: functional, cell-based
[5] = reduction of Shn3 3'UTR-driven luciferase in osteoblasts – cell-based, Clone20 osteoblasts, firefly luciferase, cherry-picked, dose response (AID 624132); assay type: functional;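 note: firefly luciferase luminescence from reporter carrying the Shn3 3'UTR in osteoblasts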
[6] = loss of viability in HepG2 cells – cell-based, CellTiter-Glo, cherry-picked, cytotoxicity control for Shn3 inhibitor project, dose response (AID 624134); assay type: functional
[7] = viability loss in CEM21 cells – cell-based, CellTiter-Glo luminescence, cherry-picked, cytotoxicity control for viral fusion inhibitor project, dose response (AID 652042); assay type: functional;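 note: potency for signal decrease meaning cytotoxicity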
[8] = non-specific 3'UTR reporter inhibition in Clone20-Shn3RL – cell-based, Renilla luciferase, cherry-picked, counter-screen for Shn3 inhibitor project, dose response (AID 624133); assay type: functional
[9] = blockers of HIV-1 ZM109 envelope-driven cell-cell fusion – HeLa effector, CEM target cells, luciferase, cherry-pick, dose response (AID 652058); assay type: functional, cell-based;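 note: luciferase signal from HIV-1 Env mediated cell-cell fusion of effector and target cells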
[10] = blockers of HIV-1 envelope-mediated cell-cell fusion – cherry-pick, dose response (AID 652057); assay type: functional, cell-based
[11] = luciferase reporter signal suppression in cells – H4 neuroglioma cells, luminescence, dose response (AID 1990); assay type: functional, cell-based
[12] = Luminescence Cell-Based Dose Retest to Confirm Inhibitors of Cancer Stem Cells. [Related pubchem assays (depositor defined):AID2717, AID2721]; assay type: functional; conditions: Homo sapiens
[13] = off-target signal loss in HeLa-CEM21 co-culture – HeLa F-luc CTL cells, cherry-picked, counter-screen for HIV-1 Env fusion inhibitor project, dose response (AID 652040); assay type: functional, cell-based;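 note: potency for signal decrease marking cytotoxic or nonspecific inhibition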
[14] = molecular target: T2, Fatty acid synthase (Homo sapiens, UniProt P49327); test: inhibition of human FAS-TE enzyme activity – biochemical, kinetic fluorescence intensity, dose response (AID 624326); assay type: functional;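 note: rate of fluorescence rise from hydrolysis of a fluorogenic O-methyl fluorescein ester substrate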
T2 sequence (P49327 whole entry): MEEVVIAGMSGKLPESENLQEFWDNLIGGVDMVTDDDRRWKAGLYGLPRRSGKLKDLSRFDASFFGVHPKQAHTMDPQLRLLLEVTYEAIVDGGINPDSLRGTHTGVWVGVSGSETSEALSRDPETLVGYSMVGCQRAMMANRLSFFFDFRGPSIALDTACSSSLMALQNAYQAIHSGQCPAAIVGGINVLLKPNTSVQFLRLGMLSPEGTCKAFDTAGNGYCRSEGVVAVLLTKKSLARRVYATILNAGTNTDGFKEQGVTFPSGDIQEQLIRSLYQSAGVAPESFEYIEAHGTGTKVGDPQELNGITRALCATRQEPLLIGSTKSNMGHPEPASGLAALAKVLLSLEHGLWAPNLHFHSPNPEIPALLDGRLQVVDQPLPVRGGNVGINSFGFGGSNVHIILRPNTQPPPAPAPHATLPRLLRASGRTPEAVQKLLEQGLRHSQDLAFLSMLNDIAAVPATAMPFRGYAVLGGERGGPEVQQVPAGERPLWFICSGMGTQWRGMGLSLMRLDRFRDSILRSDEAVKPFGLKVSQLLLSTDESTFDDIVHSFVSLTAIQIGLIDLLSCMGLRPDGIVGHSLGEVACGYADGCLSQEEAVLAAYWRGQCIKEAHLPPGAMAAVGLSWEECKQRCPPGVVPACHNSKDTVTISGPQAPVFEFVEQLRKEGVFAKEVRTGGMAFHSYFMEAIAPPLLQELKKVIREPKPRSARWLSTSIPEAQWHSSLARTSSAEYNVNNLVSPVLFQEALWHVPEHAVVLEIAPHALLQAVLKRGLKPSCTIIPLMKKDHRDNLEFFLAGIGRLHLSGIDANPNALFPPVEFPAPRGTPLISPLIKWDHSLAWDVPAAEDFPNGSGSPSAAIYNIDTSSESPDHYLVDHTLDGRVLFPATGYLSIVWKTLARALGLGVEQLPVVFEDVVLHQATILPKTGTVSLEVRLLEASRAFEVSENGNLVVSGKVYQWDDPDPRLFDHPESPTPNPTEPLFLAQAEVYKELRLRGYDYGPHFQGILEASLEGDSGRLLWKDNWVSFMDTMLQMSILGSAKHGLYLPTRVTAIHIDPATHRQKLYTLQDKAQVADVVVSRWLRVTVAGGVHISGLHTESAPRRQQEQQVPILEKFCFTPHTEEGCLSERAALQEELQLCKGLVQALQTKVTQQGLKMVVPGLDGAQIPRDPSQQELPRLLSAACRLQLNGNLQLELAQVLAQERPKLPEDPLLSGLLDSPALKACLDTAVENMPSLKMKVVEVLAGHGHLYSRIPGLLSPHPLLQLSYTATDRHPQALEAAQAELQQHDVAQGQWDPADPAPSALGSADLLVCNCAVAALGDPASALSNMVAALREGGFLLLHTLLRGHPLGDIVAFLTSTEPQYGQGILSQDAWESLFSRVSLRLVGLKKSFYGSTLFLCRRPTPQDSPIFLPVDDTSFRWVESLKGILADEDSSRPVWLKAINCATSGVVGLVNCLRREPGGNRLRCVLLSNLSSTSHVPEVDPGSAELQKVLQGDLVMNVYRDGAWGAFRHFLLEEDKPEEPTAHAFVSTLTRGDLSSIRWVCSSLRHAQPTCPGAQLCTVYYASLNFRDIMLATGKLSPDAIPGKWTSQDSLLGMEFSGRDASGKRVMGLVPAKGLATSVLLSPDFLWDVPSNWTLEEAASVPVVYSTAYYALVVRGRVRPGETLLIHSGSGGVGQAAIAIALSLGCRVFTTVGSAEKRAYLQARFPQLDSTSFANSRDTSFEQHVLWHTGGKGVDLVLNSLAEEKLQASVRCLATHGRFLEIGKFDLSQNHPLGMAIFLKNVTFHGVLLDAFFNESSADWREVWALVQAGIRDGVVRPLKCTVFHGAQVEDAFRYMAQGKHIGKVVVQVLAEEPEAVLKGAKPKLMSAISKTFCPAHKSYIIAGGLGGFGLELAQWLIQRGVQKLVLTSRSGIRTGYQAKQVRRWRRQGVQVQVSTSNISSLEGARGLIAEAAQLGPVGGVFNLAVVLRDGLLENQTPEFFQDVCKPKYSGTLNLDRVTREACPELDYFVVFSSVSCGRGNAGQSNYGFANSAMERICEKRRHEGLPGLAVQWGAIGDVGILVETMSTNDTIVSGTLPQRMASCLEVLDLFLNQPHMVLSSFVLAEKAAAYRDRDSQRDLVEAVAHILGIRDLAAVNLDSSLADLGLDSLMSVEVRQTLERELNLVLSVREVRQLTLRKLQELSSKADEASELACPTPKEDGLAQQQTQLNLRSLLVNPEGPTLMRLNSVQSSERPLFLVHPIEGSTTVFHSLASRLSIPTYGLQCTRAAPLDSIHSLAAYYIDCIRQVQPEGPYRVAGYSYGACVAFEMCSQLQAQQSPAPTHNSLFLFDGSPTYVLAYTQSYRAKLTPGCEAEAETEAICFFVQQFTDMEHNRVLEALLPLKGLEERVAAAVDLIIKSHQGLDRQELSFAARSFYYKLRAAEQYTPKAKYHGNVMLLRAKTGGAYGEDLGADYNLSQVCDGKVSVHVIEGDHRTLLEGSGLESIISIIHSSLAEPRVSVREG

[15] = molecular target: T2, Fatty acid synthase; test: inhibition of human FAS-TE enzyme activity – biochemical, endpoint fluorescence intensity, uHTS hits, dose response (AID 624327); assay type: functional;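 note: fluorescence from hydrolysis of an O-methyl fluorescein acyl ester substrate by the enzyme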
[16] = cells; assay type: functional, cell-based
[17] = cells; assay type: functional, cell-based; remark: listed apart in the source
[18] = molecular target: T3, Protein RecA (Mycobacterium tuberculosis, UniProt P9WHJ3); test: Fluorescence Cell-Free Homogeneous Dose Retest to Identify Inhibitors of RecA-Intein Splicing Activity. [Related pubchem assays (depositor defined):AID2097, AID2223, AID489010, AID492950]; assay type: functional
T3 sequence (P9WHJ3 whole entry): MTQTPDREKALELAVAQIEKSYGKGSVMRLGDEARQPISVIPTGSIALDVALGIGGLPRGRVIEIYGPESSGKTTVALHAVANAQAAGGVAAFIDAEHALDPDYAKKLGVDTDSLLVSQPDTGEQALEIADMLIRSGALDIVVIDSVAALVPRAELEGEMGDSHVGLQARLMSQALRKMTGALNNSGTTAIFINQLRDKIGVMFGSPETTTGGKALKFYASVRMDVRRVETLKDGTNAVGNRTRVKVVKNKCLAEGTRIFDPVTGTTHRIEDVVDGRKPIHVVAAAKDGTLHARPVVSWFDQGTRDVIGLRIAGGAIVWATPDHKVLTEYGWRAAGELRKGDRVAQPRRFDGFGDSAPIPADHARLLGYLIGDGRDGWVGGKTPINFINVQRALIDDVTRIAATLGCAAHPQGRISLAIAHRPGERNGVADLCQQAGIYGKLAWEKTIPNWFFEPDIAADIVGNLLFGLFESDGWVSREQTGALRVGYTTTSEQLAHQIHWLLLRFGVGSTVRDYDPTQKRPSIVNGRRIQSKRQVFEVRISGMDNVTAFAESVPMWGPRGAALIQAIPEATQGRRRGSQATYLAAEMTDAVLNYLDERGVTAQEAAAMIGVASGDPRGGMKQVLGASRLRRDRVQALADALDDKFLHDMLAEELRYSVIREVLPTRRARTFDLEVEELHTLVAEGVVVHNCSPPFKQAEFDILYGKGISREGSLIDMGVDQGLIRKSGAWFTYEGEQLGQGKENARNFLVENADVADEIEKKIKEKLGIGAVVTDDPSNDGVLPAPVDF

[19] = molecular target: T4, Replicative DNA helicase DnaB (Mycobacterium tuberculosis, UniProt P9WMR3); test: DnaB intein splicing inhibitors, dose response, biochemical, cell-free fluorescence (AID 449749); assay type: functional
T4 sequence (P9WMR3 whole entry): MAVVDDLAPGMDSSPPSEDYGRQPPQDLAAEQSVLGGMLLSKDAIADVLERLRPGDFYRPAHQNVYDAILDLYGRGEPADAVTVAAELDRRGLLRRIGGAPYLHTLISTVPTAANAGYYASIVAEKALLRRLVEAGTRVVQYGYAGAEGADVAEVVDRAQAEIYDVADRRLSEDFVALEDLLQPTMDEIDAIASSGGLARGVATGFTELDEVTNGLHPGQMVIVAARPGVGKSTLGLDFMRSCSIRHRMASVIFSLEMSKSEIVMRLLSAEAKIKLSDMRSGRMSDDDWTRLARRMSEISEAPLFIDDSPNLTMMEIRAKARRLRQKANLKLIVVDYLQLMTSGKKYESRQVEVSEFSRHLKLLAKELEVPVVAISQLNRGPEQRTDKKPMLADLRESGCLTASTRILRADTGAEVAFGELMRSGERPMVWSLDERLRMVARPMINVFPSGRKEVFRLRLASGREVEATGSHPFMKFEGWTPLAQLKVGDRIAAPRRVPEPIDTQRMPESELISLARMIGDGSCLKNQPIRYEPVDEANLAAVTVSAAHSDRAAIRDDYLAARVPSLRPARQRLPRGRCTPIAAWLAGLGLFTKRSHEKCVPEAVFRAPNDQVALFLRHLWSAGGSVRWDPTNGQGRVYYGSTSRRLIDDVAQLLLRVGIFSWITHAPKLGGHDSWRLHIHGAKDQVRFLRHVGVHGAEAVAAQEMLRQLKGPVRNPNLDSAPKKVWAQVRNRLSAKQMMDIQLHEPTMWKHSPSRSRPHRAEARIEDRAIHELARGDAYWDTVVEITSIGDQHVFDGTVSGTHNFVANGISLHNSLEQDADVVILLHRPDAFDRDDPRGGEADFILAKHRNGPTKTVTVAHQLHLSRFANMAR

| Compound | AC50 [3] | AC50 [9] | AC50 [10] | AC50 [13] | IC50 [14] | IC50 [15] | further results |
| --- | --- | --- | --- | --- | --- | --- | --- |
| Cc1cc(C)c(S(=O)(=O)/N=C2\C=C(NS(=O)(=O)c3ccccc3)C(=O)c3ccccc32)c(C)c1 |  |  |  |  |  |  | IC50 [1]: 31.1 µM (active) |
| Fc1ccc(C(OCCN2CCN(CCCc3ccccc3)CC2)c2ccc(F)cc2)cc1 | 12.3 µM (active) | 8.74 µM (active) | 8.27 µM (active) | 13 µM (active) |  |  | EC50 [2]: > 120 µM (not active); EC50 [4]: > 120 µM (not active); AC50 [5]: 6.17 µM (active); AC50 [6]: 38.8 µM (active); AC50 [7]: 14.5 µM (active); AC50 [8]: 8.11 µM (active); EC50 [11]: 9.61 µM (active); AC50 [12]: 3.05 µM (active) |
| C#CCN(C[C@H]1[C@H](OC(=O)NC2CCCC2)[C@H](OC(=O)NC2CCCC2)C[C@H]2C(=O)N(c3ccccc3)C(=O)[C@@H]12)S(=O)(=O)c1ccc(C)cc1 |  |  |  |  | 23 µM (inactive) | 47.5 µM (inactive) |  |
| Cc1ccc(S(=O)(=O)N2CCC(=O)N(CCOC(=O)Nc3cccc(Cl)c3)CC2)cc1 | 7.72 µM (active) | 4.6 µM (active) | 3.12 µM (active) | 4.11 µM (active) |  |  |  |
| CC(C)(C)CN1CCNC(=O)C1CC(=O)NCCc1ccccc1F (stereo not given) |  |  |  |  |  |  | IC50 [16]: > 29.9 µM (inactive); EC50 [17]: > 29.9 µM (inactive) |
| COc1ccc(C(O)(CCC(C)C)C(CN2CCOCC2)c2ccccc2)cc1 (stereo not given) | 40.3 µM (active) | 23.3 µM (active) | 5.79 µM (active) | 23.8 µM (active) |  |  | AC50 [7]: 51.9 µM (active) |
| CC(=O)N(C1=C(N)C(=O)c2ccccc2C1=O)c1ccccc1 |  |  |  |  |  |  | IC50 [1]: 10.4 µM (active); EC50 [18]: 2.18 µM (active); AC50 [19]: 3.46 µM (active) |
| O=C(/C=C/c1cc([N+](=O)[O-])ccc1OC(F)F)Nc1cccc2ccccc12 |  |  |  |  | 61.9 µM (inactive) | 24.6 µM (inactive) |  |
| C[C@H](CO)N1C[C@H](C)[C@@H](CN(C)C(=O)NC2CCCCC2)Oc2c(NC(=O)Nc3ccccc3)cccc2C1=O |  |  |  |  | 3.04 µM (active) | 4.16 µM (active) |  |
| CCN1CCN(S(=O)(=O)c2ccc(Cl)c(C(=O)N(C)Cc3ccc(C(C)(C)C)cc3)c2)CC1 |  |  |  |  | 17.3 µM (active) | 13.5 µM (active) |  |
